According to patent publication US7317003B2, “Small peptides having anti-angiogenic and endothelial cell inhibition activity” (National University of Singapore, priority 1998, dated 2008):
Where a SMILES comes first, the peptide text is derived from it.

Experiments:
[1] = tested on: bovine aorta endothelial cell (BAE); type: cell-based; details: 72 h; for inhibition of BAE cell proliferation (in words): bFGF 1 ng/ml
Protocol: The peptides were tested in an in vitro bovine aorta endothelial cell (BAE) proliferation assay for their ability to inhibit BAE cell proliferation. Cells were plated into 24-well culture plates at 1.25×10^4 cells/well in complete SFM-endothelial medium (Gibco, USA). After 24 h, the medium was removed and various amounts of peptides were added into the wells in 0.5 ml of SFM-endothelial medium without bFGF. After 30 minutes incubation, bFGF was added into each well at a final concentration of 1 ng/ml together with another 0.5 ml of SFM-endothelial medium. Seventy-two hours later, cells were trypsinized and counted using a hemocytometer. Commercial E. coli recombinant human angiostatin (1 μM) was used as a control in the experiments.
Peptides were tested in an in vitro bovine aorta endothelial cell (BAE) proliferation assay for their ability to inhibit BAE cell proliferation. Cells were plated into 24-well culture plates at the number of 1.25×10^4/well in complete SFM-endothelial media (Gibco, USA). After 24 hours, the medium was removed and various amounts of peptides were added into the wells in 0.5 ml of SFM-endothelial medium without bFGF. After 30 minutes incubation, bFGF was added into each well at a final concentration of 1 ng/ml together with another 0.5 ml of SFM-endothelial medium. Seventy-two hours later, cells were trypsinized and counted using a hemocytometer. […] The IC50 of the Endo-2, -3 and -4 peptides is estimated to be 0.4 uM, 0.3 uM and 2 uM respectively.

[2] = tested on: chick embryo chorioallantoic membrane (CAM); experiment: chick embryo chorioallantoic membrane (CAM) in vivo angiogenesis assay; details: for inhibition of chick CAM angiogenesis (in words): peptide on cover slip, compared to PBS control
Protocol: Since peptides Angio-2, Angio-3 and Angio-4 all inhibited BAE cell proliferation, they were also tested in the chick embryo chorioallantoic membrane (CAM) in vivo angiogenesis assay (7). In this assay, the peptides are coated onto 2-3 mm glass squares cut from microscope cover slips. […] Peptide Angio-3 reduced microvessel density at the very low dose of 12 pg/cover slip (the lowest dose tested, comparing to a PBS control). As a positive control, recombinant angiostatin at the dose of 100 ug/cover slip was tested in the same experiment. The amount of inhibition (judging from the extent of reduction in microvessel density) from 100 ug recombinant angiostatin is equivalent to 1.2 ug of Angio-3 peptide.

[3] = tested on: chick embryo chorioallantoic membrane (CAM); experiment: as above; details: 10 day embryo, 12 ug/cover slip
[4] = tested on: BAE cells; experiment: BAE cell cytotoxicity by trypan blue staining and cellular morphology; type: cell-based, bovine; details: 20 μM, trypan blue staining and microscopic cellular morphology
Protocol: The IC50 of the three peptides are about 2 mM, 20 nM and 200 uM respectively.

[5] = tested on: Human hepatoma cell line HepG2; details: mouse, in vivo, 15 mg/kg, 12 h
Protocol: Human hepatoma cell line HepG2 was cultured and 1 million cells were injected subcutaneously into the right back of each 6 weeks old BALB/c nude mouse. Visible tumors appear from about 2 weeks after tumor cell injection. Mice with tumors were then randomly grouped and injected with the peptide at 300 μg/mouse every 12 h (16-19 g average weight). […] Tumor sizes were measured with a caliper every three days and volumes calculated using the formula (width)^2×length×0.52. Statistical analyses were done using student t-test using the SigmaStat software (SPSS, USA). Tumors are angiogenesis dependent. To test if peptide angio-3 can inhibit tumor growth in vivo, human hepatoma HepG2 cells were injected subcutaneously into nude mice to induce tumor formation. Tumor nodules appear in about 15-18 days after tumor cell injection. Peptide was then injected at a distant site from the tumor into tumor bearing mice at 15 mg/kg every 12 h for up to a month. […] Experiments were terminated when the control group tumors started to show necrosis.

[6] = tested on: primary tumor growth and metastasis; details: mice; cited from earlier work
[7] = 100 mg/kg/day; cited from earlier work
[8] = tested on: bovine aorta endothelial cell (BAE); details: reported in reference 5; cited from earlier work

| Compound | IC50 [1] [µM] | inhibition of BAE cell proliferation (in words) [1] | inhibition of chick CAM angiogenesis (in words) [2] | further results |
| --- | --- | --- | --- | --- |
| CC[C@H](C)[C@H](NC(=O)[C@H](Cc1ccc(O)cc1)NC(=O)CNC(=O)[C@H](Cc1c[nH]cn1)NC(=O)[C@H](C)NC(=O)[C@H](Cc1c[nH]cn1)NC(=O)[C@@H]1CCCN1C(=O)[C@@H](N)CO)C(=O)N1CCC[C@H]1C(=O)N[C@@H](CO)C(=O)O [Angio-2] (H-SPHAHGYIPS-OH; N-terminus and C-terminus assumed) | ~2000 | inhibited BAE cell proliferation in a dose-dependent manner | inhibited chick CAM angiogenesis | inhibition of chick CAM angiogenesis (FIG. 5) [3]: Inhibition of chick CAM angiogenesis |
| C[C@@H](O)[C@H](N)C(=O)N1CCC[C@H]1C(=O)N[C@@H](Cc1c[nH]cn1)C(=O)N[C@H](C(=O)N[C@@H](Cc1c[nH]cn1)C(=O)N[C@@H](CC(N)=O)C(=O)N[C@@H](CCCNC(=N)N)C(=O)N[C@H](C(=O)N1CCC[C@H]1C(=O)N[C@@H](CCC(=O)O)C(=O)O)[C@@H](C)O)[C@@H](C)O [Angio-3] (H-TPHTHNRTPE-OH) | ~0.02 | – | – | cell cytotoxicity with BAE cells [4]: No obvious cell cytotoxicity; inhibition of HepG2 tumor growth [5]: about 40% |
| C[C@@H](O)[C@H](N)C(=O)N1CCC[C@H]1C(=O)N[C@@H](Cc1c[nH]cn1)C(=O)N[C@@H](CCCNC(=N)N)C(=O)N[C@@H](Cc1c[nH]cn1)C(=O)N[C@@H](CCC(N)=O)C(=O)N[C@@H](CCCCN)C(=O)N[C@H](C(=O)N1CCC[C@H]1C(=O)N[C@@H](CCC(=O)O)C(=O)O)[C@@H](C)O [Angio-4] (H-TPHRHQKTPE-OH; N-terminus and C-terminus assumed) | ~200 | inhibited BAE cell proliferation in a dose-dependent manner | inhibited chick CAM angiogenesis | inhibition of chick CAM angiogenesis (FIG. 3, 4) ([2]; 4 day embryo, 120 ug/cover slip): Inhibition of chick CAM angiogenesis |
| CC(C)C[C@H](NC(=O)[C@@H]1CCCN1C(=O)[C@@H](NC(=O)[C@H](CC(N)=O)NC(=O)[C@H](CC(C)C)NC(=O)[C@H](C)NC(=O)[C@@H](NC(=O)[C@H](CC(C)C)NC(=O)[C@H](Cc1c[nH]cn1)NC(=O)[C@H](CC(C)C)NC(=O)[C@@H](NC(=O)[C@@H]1CCCN1C(=O)[C@@H](N)CCC(N)=O)C(C)C)C(C)C)[C@@H](C)O)C(=O)O [Endo-2] (H-QPVLHLVALNTPL-OH; N-terminus and C-terminus assumed) | ~0.4 | inhibited BAE cell proliferation in a dose-dependent manner | – | – |
| CC[C@H](C)[C@H](NC(=O)[C@@H]1CCCN1C(=O)[C@@H](N)C(C)C)C(=O)N[C@H](C(=O)N[C@@H](CC(N)=O)C(=O)N[C@@H](CC(C)C)C(=O)N[C@@H](CCCCN)C(=O)N[C@@H](CC(=O)O)C(=O)N[C@@H](CCC(=O)O)C(=O)N[C@H](C(=O)N[C@@H](CC(C)C)C(=O)N[C@@H](CO)C(=O)N1CCC[C@H]1C(=O)N[C@@H](CO)C(=O)O)C(C)C)C(C)C [Endo-3] (H-VPIVNLKDEVLSPS-OH; N-terminus and C-terminus assumed) | ~0.3 | inhibited BAE cell proliferation in a dose-dependent manner | – | – |
| CC(C)[C@H](NC(=O)[C@H](CO)NC(=O)[C@H](CCCCN)NC(=O)[C@H](CCC(N)=O)NC(=O)[C@@H]1CCCN1C(=O)[C@H](Cc1c[nH]c2ccccc12)NC(=O)[C@H](C)NC(=O)[C@@H]1CCCN1C(=O)[C@@H](N)Cc1c[nH]cn1)C(=O)N[C@@H](Cc1c[nH]c2ccccc12)C(=O)N[C@@H](Cc1c[nH]cn1)C(=O)NCC(=O)N[C@@H](CO)C(=O)N[C@@H](CC(=O)O)C(=O)N1CCC[C@H]1C(=O)N[C@@H](CO)C(=O)O [Endo-4] (H-HPAWPQKSVWHGSDPS-OH; N-terminus and C-terminus assumed) | ~2 | inhibited BAE cell proliferation in a dose-dependent manner | – | inhibition of chick CAM angiogenesis (FIG. 8) ([2]; 10 day embryo, 1.8 μg/coverslip): Inhibition of chick CAM angiogenesis |
| Endo-1: endostatin-derived small peptide (SPHNSYIVLPI; Mammalian; Endo-1) | – | only a slight inhibition effect at high doses | – | – |
| angiostatin | – | – | – | dose at which inhibition of metastasis is observed [6]: about 1 mg/kg/day; dose at which inhibition of primary tumor growth is observed [6]: about 10 mg/kg/day; toxicity in mice [7]: without observable toxicity; reported IC50 range, endothelial cell proliferation [8]: nanomolar range |
| fVEGF: peptide designed from Zebrafish VEGF (YPDEIEHTYIPS; Mammalian; fVEGF) | – | – | dose-dependent inhibition of CAM angiogenesis | – |
| hFLT2-5: further N-terminal truncation of hFLT2 (KKFPL; Mammalian; hFLT2-5) | – | – | non-functional peptide | – |
| hFLT2-7: further N-terminal truncation of hFLT2 (TLKKFPL; Mammalian; hFLT2-7) | – | – | non-functional peptide | – |
| hFLT2: small peptide designed from Ig domain 2 of the extracellular region of FLT-1 (SPNITVTLKKFPL; Mammalian; hFLT2) | – | – | very potent angiogenesis inhibition activity | – |
| mVEGF: peptide designed from mammalian VEGF sequences (YPDEIEYIFKPS; Mammalian; mVEGF) | – | – | dose-dependent inhibition of CAM angiogenesis | inhibition of chick CAM angiogenesis (FIG. 9A-9B) ([2]; 13 day embryo, various doses, 0 and 40 hours incubation): Inhibition of chick CAM angiogenesis |
